How the values were obtained:
[1] = system: DSS-Induced inflammatory Bowel Disease Models in Mice; assay: DSS-induced inflammatory bowel disease model in mice (Biological Example 4, 1.3% DSS); assay type: in vivo, C57BL/6 mice; details: 30 mg/Kg i.g. Q.D; for Average Length of Colon (Mean ± SD) / Inhibitory Rate of Colonic Reduction: 1.3% DSS days 0-5
Experimental: 40 healthy female C57BL/6 mice having weight of 16-19 g were randomly divided into 4 groups in accordance with weight. There were 10 mice in each group (see Table 6 below). The first day of the experiment was recorded as Day 0. The administration regimen and induction regimen were detailed in Table 6. The change in weight of experimental animals was recorded every day. […] Samples of animal colonic tissues were obtained to measure the length. One-way ANOVA analysis of mice weights was performed by SPSS22. Statistical analyses between groups were performed. Mann-Whitney U non-parametric test was performed on the length of colon.
The experimental method used in the present biological example is identical to those in Biological Example 3.
Calculation Formula of Inhibitory Rate of Colonic Reduction: (Length of Colon in Administration Group−Length of Colon in Model Group)/(Length of Colon in Blank Group−Length of Colon in Model Group)

[2] = system: ICR mice; assay: Acute toxicity experiment of single oral administration in mice; assay type: in vivo; details: 1000 mg/Kg single oral dose
Experimental: The mice were fasted one day before the experiment. On the day of the experiment, 6 mice (ICR mice, body weight of 19-21 g, three females and three males) were selected in each experiment group. First of all, one female and one male were selected to orally give 1000 mg/Kg, and observed for 5-10 minutes. If there were no obvious side effects, the remaining 4 animals were orally given the same dose, and observed for 10-15 minutes. If no animal died, the animals were placed in a box to balancedly feed for 7 days. The state was observed and the body weight was recorded daily.
Observation Indexes within 0-15 Minutes After Administration
Activity: restlessness, hyperactivity
Nervous system response: tremor, spasm, convulsion, ataxia, posture abnormality, etc.
Autonomic nerve: exophthalmos, salivation, tears, urination (hematuria), diarrhea, piloerection, breathing, etc.
Observation Indexes Over 7 Days
State of Animal: lethargy, hyperactivity, excitement, hair loss, diarrhea, abnormal behavior, death, etc.

Row | SMILES | Average Length of Colon (Mean ± SD) [1] [cm] | Inhibitory Rate of Colonic Reduction [1] [%] | Weights of Experimental Mice (Mean ± SD) ([1]; Day 0) [g] | Weights of Experimental Mice (Mean ± SD) ([1]; Day 1) [g] | Weights of Experimental Mice (Mean ± SD) ([1]; Day 2) [g] | Weights of Experimental Mice (Mean ± SD) ([1]; Day 3) [g] | Weights of Experimental Mice (Mean ± SD) ([1]; Day 4) [g] | Weights of Experimental Mice (Mean ± SD) ([1]; Day 5) [g] | Weights of Experimental Mice (Mean ± SD) ([1]; Day 6) [g] | Weights of Experimental Mice (Mean ± SD) ([1]; Day 7) [g] | Weights of Experimental Mice (Mean ± SD) ([1]; Day 8) [g] | Weights of Experimental Mice (Mean ± SD) ([1]; Day 9) [g] | Daily Body Weight of Tested Female Mice (Mean ± SD) ([2]; Day 1) [g] | Daily Body Weight of Tested Male Mice (Mean ± SD) ([2]; Day 1) [g] | Daily Body Weight of Tested Female Mice (Mean ± SD) ([2]; Day 2) [g] | Daily Body Weight of Tested Male Mice (Mean ± SD) ([2]; Day 2) [g] | Daily Body Weight of Tested Female Mice (Mean ± SD) ([2]; Day 3) [g] | Daily Body Weight of Tested Male Mice (Mean ± SD) ([2]; Day 3) [g] | Daily Body Weight of Tested Female Mice (Mean ± SD) ([2]; Day 4) [g] | Daily Body Weight of Tested Male Mice (Mean ± SD) ([2]; Day 4) [g] | other results
1 | CNc1cccc2c1C(=O)N(C1CCC(=O)N(CCOC)C1=O)C2=O (stereo not drawn) [Example 2, 4-methylamino-2-(1-(2-methoxyethyl)-2,6-dioxopiperidin-3-yl)isoindolin-1,3-dione] | 6.9 ± 0.2 | 66.7 | 20.1 ± 0.8 | 20.0 ± 0.7 | 19.8 ± 0.6 | 20.2 ± 0.8 | 20.2 ± 0.8 | 20.0 ± 0.6 | 18.9 ± 0.6 | 18.8 ± 0.7 | 18.8 ± 1.0 | 19.0 ± 1.1 | 19.2 ± 0.5 | 18.6 ± 0.5 | 22.7 ± 0.6 | 24.1 ± 0.4 | 23.2 ± 0.5 | 24.7 ± 0.2 | 23.2 ± 0.5 | 24.7 ± 0.2 | Daily Body Weight of Tested Female Mice (Mean ± SD) ([2]; Day 5): 24.4 ± 0.2 g; Daily Body Weight of Tested Male Mice (Mean ± SD) ([2]; Day 5): 26.2 ± 0.6 g; Daily Body Weight of Tested Female Mice (Mean ± SD) ([2]; Day 6): 24.6 ± 1.1 g; Daily Body Weight of Tested Male Mice (Mean ± SD) ([2]; Day 6): 28.8 ± 0.5 g; Daily Body Weight of Tested Female Mice (Mean ± SD) ([2]; Day 7): 24.5 ± 1.9 g; Daily Body Weight of Tested Male Mice (Mean ± SD) ([2]; Day 7): 29.2 ± 0.8 g; Summary of toxic response of tested animals in 7 Days ([2]; Female): Abnormality was not observed in 7 days of the test; Summary of toxic response of tested animals in 7 Days ([2]; Male): Slight abnormality of activity was occasionally observed in two
2 | CCOCCN1C(=O)CCC(N2C(=O)c3cccc(N)c3C2=O)C1=O (stereo not drawn) [Example 19, 4-amino-2-(1-(2-ethoxyethyl)-2,6-dioxopiperidin-3-yl)isoindolin-1,3-dione] | 6.9 ± 0.4 | 66.7 | 19.6 ± 0.7 | 19.6 ± 0.8 | 19.7 ± 0.7 | 19.9 ± 0.7 | 20.0 ± 0.7 | 19.7 ± 0.5 | 19.2 ± 0.7 | 18.9 ± 0.8 | 19.0 ± 1.0 | 19.4 ± 0.8 | 18.0 ± 0.6 | 18.9 ± 1.2 | 20.7 ± 1.1 | 20.7 ± 1.1 | 21.3 ± 0.6 | 21.3 ± 0.6 | 22.8 ± 0.3 | 25.0 ± 2.0 | Daily Body Weight of Tested Female Mice (Mean ± SD) ([2]; Day 5): 23.2 ± 0.7 g; Daily Body Weight of Tested Male Mice (Mean ± SD) ([2]; Day 5): 24.8 ± 1.9 g; Daily Body Weight of Tested Female Mice (Mean ± SD) ([2]; Day 6): 23.3 ± 1.2 g; Daily Body Weight of Tested Male Mice (Mean ± SD) ([2]; Day 6): 26.5 ± 1.9 g; Daily Body Weight of Tested Female Mice (Mean ± SD) ([2]; Day 7): 23.0 ± 1.7 g; Daily Body Weight of Tested Male Mice (Mean ± SD) ([2]; Day 7): 27.7 ± 2.2 g; Summary of toxic response of tested animals in 7 Days ([2]; Female): Severe motor dysfunction in three animals was observed 30; Summary of toxic response of tested animals in 7 Days ([2]; Male): Severe motor dysfunction in two animals was observed 30
3 | Nc1cccc2c1C(=O)N(C1CCC(=O)N(CCO)C1=O)C2=O (stereo not drawn) [Example 6, 4-amino-2-(1-(2-hydroxyethyl)-2,6-dioxopiperidin-3-yl)isoindolin-1,3-dione] | 6.9 ± 0.3 | 66.7 | 19.8 ± 0.6 | 19.9 ± 0.7 | 19.7 ± 0.7 | 20.0 ± 0.6 | 20.0 ± 0.6 | 19.9 ± 0.7 | 19.5 ± 0.6 | 19.4 ± 0.8 | 19.5 ± 0.7 | 19.6 ± 1.1 | 17.5 ± 0.9 | 18.4 ± 0.6 | 21.5 ± 0.9 | 21.5 ± 0.9 | 21.6 ± 1.3 | 21.6 ± 1.3 | 22.0 ± 1.2 | 25.5 ± 0.5 | Daily Body Weight of Tested Female Mice (Mean ± SD) ([2]; Day 5): 22.3 ± 1.9 g; Daily Body Weight of Tested Male Mice (Mean ± SD) ([2]; Day 5): 25.9 ± 0.9 g; Daily Body Weight of Tested Female Mice (Mean ± SD) ([2]; Day 6): 22.4 ± 2.3 g; Daily Body Weight of Tested Male Mice (Mean ± SD) ([2]; Day 6): 26.9 ± 1.1 g; Daily Body Weight of Tested Female Mice (Mean ± SD) ([2]; Day 7): 22.9 ± 2.0 g; Daily Body Weight of Tested Male Mice (Mean ± SD) ([2]; Day 7): 27.1 ± 1.1 g; Summary of toxic response of tested animals in 7 Days ([2]; Female): Abnormality was not observed in 7 days of the test; Summary of toxic response of tested animals in 7 Days ([2]; Male): Abnormality was not observed in 7 days of the test
